# System: IL-6
# Assay: Retinol (Inumax)-induced IL-6 production in primary adult human dermal fibroblast cells
# Assay type: cell-based
# Conditions: lower effective retinoid concentrations (lower than 0.5% by weight of the composition)
# Method: Primary adult human dermal fibroblast cells were incubated with 0.1% microencapsulated retinol commercially available and sold y Evonik under the trade name Inumax. Inumax was diluted in cell culture media to a final concentration of 0.1% and the dilution was used as an inflammatory reaction control. The anti-inflammatory activity of Bisabolol and Centella asiatica was compared in comparison to the control by incubating adult human dermal fibroblast cells with 0.1% inumax in supernatant in the presence of Bisabolol and Centella asiatica, both in combination with dipeptide, at a range of concentrations. Cells were incubated fro 24 hours at 37 C and 5% CO2, in the presence of the actives. At the end of incubation time the supernatant was removed for IL-6 testing. An MTT (3-(4,5-dimethylthiazol-2-yl)-2,5-diphenyltetrazolium bromide) assay was performed on the treated cells to confirm cell metabolic activity following treatment. The levels of IL-6 in supernatant were determined using the Invitrogen IL-6 assay.
substance,measurement,value
α-bisabolol,reducing the retinol induced IL-6 production and consequential skin sensitivity,beneficial in reducing the retinol induced IL-6 production

# — US20250152494A1, “COSMETIC COMPOSITION CONTAINING RETINOID, EXTRACT OF CENTELLA ASIATICA AND A DIPEPTIDE” (THE BOOTS COMPANY PLC, priority 2022, published 2025)
